PubChem BioAssay (NCI)
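1) Cells in 96-well plates. 2) Compound, 48 h, 5 concentrations. 3) Linear interpolation between surrounding doses. 4) Unreached endpoint = highest concentration. At the TGI there is no net growth.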

tested on: 786-0 renal; assay: inhibition of tumour cell growth, NCI panel, 48 h

Q: c1ccc(NNC2=NCCN2)cc1 was tested. Which TGI did it give?
A: > 100 µM

Q: Which TGI does the source give for O=c1[nH][nH]c(=O)n1Cc1cccc(Cn2c(=O)[nH][nH]c2=O)c1 here?
A: > 100 µM

Q: For CC1=C(C(=O)OCc2ccncc2)C(C2=C(C)SCCS2)C(C(=O)OCc2ccncc2)=C(C)N1, which TGI is on record?
A: > 100 µM

Q: How did the TGI turn out when O=C1c2scc(-c3ccccc3)c2-n2cccc21 was run?
A: 28 µM

Q: With CCOC(=O)C1(Cc2ccc3c(c2)CCC3)Cc2cc3c(cc2C1=O)CCC3 (stereo not drawn) as the compound, how does the TGI read?
A: > 100 µM

tested on: A498 renal; assay: inhibition of tumour cell growth, NCI panel, 48 h

Q: c1ccc(NNC2=NCCN2)cc1 was tested. Which TGI did it give?
A: > 100 µM

Q: How did the TGI turn out when O=c1[nH][nH]c(=O)n1Cc1cccc(Cn2c(=O)[nH][nH]c2=O)c1 was run?
A: > 100 µM

Q: For O=C1c2scc(-c3ccccc3)c2-n2cccc21, which TGI is on record?
A: 5.02 µM

Q: With CCOC(=O)C1(Cc2ccc3c(c2)CCC3)Cc2cc3c(cc2C1=O)CCC3 (stereo not drawn) as the compound, how does the TGI read?
A: > 78.7 µM

tested on: A549 NSCLC; assay: inhibition of tumour cell growth, NCI panel, 48 h

Q: c1ccc(NNC2=NCCN2)cc1 was tested. Which TGI did it give?
A: > 100 µM

Q: With O=c1[nH][nH]c(=O)n1Cc1cccc(Cn2c(=O)[nH][nH]c2=O)c1 as the compound, how does the TGI read?
A: > 100 µM

Q: CC1=C(C(=O)OCc2ccncc2)C(C2=C(C)SCCS2)C(C(=O)OCc2ccncc2)=C(C)N1 was tested. Which TGI did it give?
A: > 100 µM

Q: With O=C1c2scc(-c3ccccc3)c2-n2cccc21 as the compound, how does the TGI read?
A: 42.6 µM

Q: For CCOC(=O)C1(Cc2ccc3c(c2)CCC3)Cc2cc3c(cc2C1=O)CCC3 (stereo not drawn), which TGI is on record?
A: > 100 µM

tested on: ACHN renal; assay: inhibition of tumour cell growth, NCI panel, 48 h

Q: c1ccc(NNC2=NCCN2)cc1 was tested. Which TGI did it give?
A: > 100 µM

Q: With CC1=C(C(=O)OCc2ccncc2)C(C2=C(C)SCCS2)C(C(=O)OCc2ccncc2)=C(C)N1 as the compound, how does the TGI read?
A: > 100 µM

Q: O=C1c2scc(-c3ccccc3)c2-n2cccc21 was tested. Which TGI did it give?
A: > 100 µM

Q: How did the TGI turn out when CCOC(=O)C1(Cc2ccc3c(c2)CCC3)Cc2cc3c(cc2C1=O)CCC3 (stereo not drawn) was run?
A: > 100 µM

tested on: BT-549 breast; assay: inhibition of tumour cell growth, NCI panel, 48 h

Q: c1ccc(NNC2=NCCN2)cc1 was tested. Which TGI did it give?
A: > 100 µM

Q: How did the TGI turn out when O=c1[nH][nH]c(=O)n1Cc1cccc(Cn2c(=O)[nH][nH]c2=O)c1 was run?
A: > 100 µM

Q: For CC1=C(C(=O)OCc2ccncc2)C(C2=C(C)SCCS2)C(C(=O)OCc2ccncc2)=C(C)N1, which TGI is on record?
A: 42.2 µM

Q: Which TGI does the source give for O=C1c2scc(-c3ccccc3)c2-n2cccc21 here?
A: > 100 µM

Q: Which TGI does the source give for CCOC(=O)C1(Cc2ccc3c(c2)CCC3)Cc2cc3c(cc2C1=O)CCC3 (stereo not drawn) here?
A: > 100 µM

tested on: CAKI-1 renal; assay: inhibition of tumour cell growth, NCI panel, 48 h

Q: c1ccc(NNC2=NCCN2)cc1 was tested. Which TGI did it give?
A: > 100 µM

Q: For O=c1[nH][nH]c(=O)n1Cc1cccc(Cn2c(=O)[nH][nH]c2=O)c1, which TGI is on record?
A: > 100 µM

Q: How did the TGI turn out when CC1=C(C(=O)OCc2ccncc2)C(C2=C(C)SCCS2)C(C(=O)OCc2ccncc2)=C(C)N1 was run?
A: > 100 µM

Q: For O=C1c2scc(-c3ccccc3)c2-n2cccc21, which TGI is on record?
A: 31.9 µM

Q: CCOC(=O)C1(Cc2ccc3c(c2)CCC3)Cc2cc3c(cc2C1=O)CCC3 (stereo not drawn) was tested. Which TGI did it give?
A: > 100 µM

tested on: CCRF-CEM leukemia; assay: inhibition of tumour cell growth, NCI panel, 48 h

Q: Which TGI does the source give for c1ccc(NNC2=NCCN2)cc1 here?
A: > 100 µM

Q: How did the TGI turn out when O=c1[nH][nH]c(=O)n1Cc1cccc(Cn2c(=O)[nH][nH]c2=O)c1 was run?
A: > 100 µM

Q: How did the TGI turn out when CC1=C(C(=O)OCc2ccncc2)C(C2=C(C)SCCS2)C(C(=O)OCc2ccncc2)=C(C)N1 was run?
A: 59.8 µM

Q: O=C1c2scc(-c3ccccc3)c2-n2cccc21 was tested. Which TGI did it give?
A: 60.8 µM

Q: CCOC(=O)C1(Cc2ccc3c(c2)CCC3)Cc2cc3c(cc2C1=O)CCC3 (stereo not drawn) was tested. Which TGI did it give?
A: > 100 µM

tested on: COLO 205 colon; assay: inhibition of tumour cell growth, NCI panel, 48 h

Q: Which TGI does the source give for c1ccc(NNC2=NCCN2)cc1 here?
A: > 100 µM

Q: O=c1[nH][nH]c(=O)n1Cc1cccc(Cn2c(=O)[nH][nH]c2=O)c1 was tested. Which TGI did it give?
A: > 100 µM

Q: Which TGI does the source give for CC1=C(C(=O)OCc2ccncc2)C(C2=C(C)SCCS2)C(C(=O)OCc2ccncc2)=C(C)N1 here?
A: > 100 µM

Q: Which TGI does the source give for O=C1c2scc(-c3ccccc3)c2-n2cccc21 here?
A: 31.7 µM

Q: How did the TGI turn out when CCOC(=O)C1(Cc2ccc3c(c2)CCC3)Cc2cc3c(cc2C1=O)CCC3 (stereo not drawn) was run?
A: > 100 µM

tested on: DU-145 prostate; assay: inhibition of tumour cell growth, NCI panel, 48 h

Q: Which TGI does the source give for c1ccc(NNC2=NCCN2)cc1 here?
A: > 100 µM

Q: Which TGI does the source give for O=c1[nH][nH]c(=O)n1Cc1cccc(Cn2c(=O)[nH][nH]c2=O)c1 here?
A: > 100 µM

Q: With CC1=C(C(=O)OCc2ccncc2)C(C2=C(C)SCCS2)C(C(=O)OCc2ccncc2)=C(C)N1 as the compound, how does the TGI read?
A: > 100 µM

Q: For O=C1c2scc(-c3ccccc3)c2-n2cccc21, which TGI is on record?
A: > 100 µM

Q: For CCOC(=O)C1(Cc2ccc3c(c2)CCC3)Cc2cc3c(cc2C1=O)CCC3 (stereo not drawn), which TGI is on record?
A: > 100 µM

tested on: EKVX NSCLC; assay: inhibition of tumour cell growth, NCI panel, 48 h

Q: Which TGI does the source give for c1ccc(NNC2=NCCN2)cc1 here?
A: > 100 µM

Q: O=c1[nH][nH]c(=O)n1Cc1cccc(Cn2c(=O)[nH][nH]c2=O)c1 was tested. Which TGI did it give?
A: > 100 µM

Q: For CC1=C(C(=O)OCc2ccncc2)C(C2=C(C)SCCS2)C(C(=O)OCc2ccncc2)=C(C)N1, which TGI is on record?
A: > 100 µM

Q: With O=C1c2scc(-c3ccccc3)c2-n2cccc21 as the compound, how does the TGI read?
A: 25.4 µM

Q: For CCOC(=O)C1(Cc2ccc3c(c2)CCC3)Cc2cc3c(cc2C1=O)CCC3 (stereo not drawn), which TGI is on record?
A: > 100 µM

tested on: HCC-2998 colon; assay: inhibition of tumour cell growth, NCI panel, 48 h

Q: O=c1[nH][nH]c(=O)n1Cc1cccc(Cn2c(=O)[nH][nH]c2=O)c1 was tested. Which TGI did it give?
A: > 100 µM

Q: How did the TGI turn out when O=C1c2scc(-c3ccccc3)c2-n2cccc21 was run?
A: 59.5 µM

Q: With CCOC(=O)C1(Cc2ccc3c(c2)CCC3)Cc2cc3c(cc2C1=O)CCC3 (stereo not drawn) as the compound, how does the TGI read?
A: > 100 µM

tested on: HCT-116 colon; assay: inhibition of tumour cell growth, NCI panel, 48 h

Q: c1ccc(NNC2=NCCN2)cc1 was tested. Which TGI did it give?
A: > 100 µM

Q: O=c1[nH][nH]c(=O)n1Cc1cccc(Cn2c(=O)[nH][nH]c2=O)c1 was tested. Which TGI did it give?
A: > 100 µM

Q: How did the TGI turn out when CC1=C(C(=O)OCc2ccncc2)C(C2=C(C)SCCS2)C(C(=O)OCc2ccncc2)=C(C)N1 was run?
A: 32.2 µM

Q: With O=C1c2scc(-c3ccccc3)c2-n2cccc21 as the compound, how does the TGI read?
A: 26.2 µM

Q: Which TGI does the source give for CCOC(=O)C1(Cc2ccc3c(c2)CCC3)Cc2cc3c(cc2C1=O)CCC3 (stereo not drawn) here?
A: > 100 µM

tested on: HCT-15 colon; assay: inhibition of tumour cell growth, NCI panel, 48 h

Q: For c1ccc(NNC2=NCCN2)cc1, which TGI is on record?
A: > 100 µM

Q: How did the TGI turn out when O=c1[nH][nH]c(=O)n1Cc1cccc(Cn2c(=O)[nH][nH]c2=O)c1 was run?
A: > 100 µM

Q: Which TGI does the source give for CC1=C(C(=O)OCc2ccncc2)C(C2=C(C)SCCS2)C(C(=O)OCc2ccncc2)=C(C)N1 here?
A: 64.7 µM

Q: O=C1c2scc(-c3ccccc3)c2-n2cccc21 was tested. Which TGI did it give?
A: > 100 µM

Q: CCOC(=O)C1(Cc2ccc3c(c2)CCC3)Cc2cc3c(cc2C1=O)CCC3 (stereo not drawn) was tested. Which TGI did it give?
A: > 100 µM

tested on: HL-60(TB) leukemia; assay: inhibition of tumour cell growth, NCI panel, 48 h

Q: c1ccc(NNC2=NCCN2)cc1 was tested. Which TGI did it give?
A: > 100 µM

Q: With O=c1[nH][nH]c(=O)n1Cc1cccc(Cn2c(=O)[nH][nH]c2=O)c1 as the compound, how does the TGI read?
A: > 100 µM

Q: CC1=C(C(=O)OCc2ccncc2)C(C2=C(C)SCCS2)C(C(=O)OCc2ccncc2)=C(C)N1 was tested. Which TGI did it give?
A: 79.3 µM

Q: For CCOC(=O)C1(Cc2ccc3c(c2)CCC3)Cc2cc3c(cc2C1=O)CCC3 (stereo not drawn), which TGI is on record?
A: 7.07 µM

tested on: HOP-62 NSCLC; assay: inhibition of tumour cell growth, NCI panel, 48 h

Q: Which TGI does the source give for c1ccc(NNC2=NCCN2)cc1 here?
A: > 100 µM

Q: Which TGI does the source give for CC1=C(C(=O)OCc2ccncc2)C(C2=C(C)SCCS2)C(C(=O)OCc2ccncc2)=C(C)N1 here?
A: 58.6 µM

Q: With O=C1c2scc(-c3ccccc3)c2-n2cccc21 as the compound, how does the TGI read?
A: 38.1 µM
